The values below come from patent USRE47689E1, “Compounds for treating spinal muscular atrophy” (PTC Therapeutics, Inc., priority 2011, dated 2019).

Some results are limits rather than exact numbers.

What is called melting point is the temperature, or range, at which the solid turns liquid.

Series [1] deals with SMN2 minigene (full length SMN2 minigene mRNA containing SMN2 exon 7). The experiment in a line: SMN2 minigene mRNA splicing RT-qPCR assay in cultured cells. In kind it is cell-based, human. Particulars: Homo sapiens, HEK293-H; HEK293H cells stably transfected with SMN2-A minigene; 24 hours; 7-point concentration curve; 1.5-fold relative to vehicle-treated cells; read-out: EC1.5x for production of full length SMN2 mRNA. The procedure, abridged: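 Full-length SMN2 minigene mRNA (exon 7 included), minigene-specific and not endogenous SMN, quantified by RT-qPCR multiplexed with GAPDH in stably transfected HEK293H cells after 24 h compound exposure at 37° C. Abundance from efficiency-corrected Ct, normalized to GAPDH and vehicle; EC1.5x reported as star bins.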
In general terms: In qPCR the cycle at which signal appears reflects the starting amount.

For another series, the system named is Smn protein. The experiment in a line: Smn protein assay in cultured cells (SMN HTRF). Format: cell-based, human. Particulars: 48 hours; for maximum fold (Fold) increase of Smn protein: SMA patient fibroblast cells, 7-point concentration data, fold increase relative to vehicle control (SMN HTRF); for EC1.5x (concentration giving 1.5-fold Smn protein increase): SMA Type 1 patient fibroblast cells (GM03813), 7-point concentration curve, SMN HTRF, concentration producing 1.5 times Smn protein vs DMSO vehicle control, read-out: EC1.5x for Smn protein expression. The procedure, abridged:
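Smn in SMA fibroblast lysates, measured by anti-SMN HTRF after 48 h compound exposure; EC1.5x from fold change over vehicle.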
(In general: TR-FRET usually uses a lanthanide donor and a delayed reading to cut background.)

For the compound `Cc1ccc(Nc2cc3ccc(N4CCNCC4)cc3oc2=O)nc1` [Compound 63, 3-[(5-methylpyridin-2-yl)amino]-7-(piperazin-1-yl)-2H-chromen-2-one], the melting point lay within 225 to 228 °C. The EC (1.5-fold) in series [1] is 1 to 3 µM. Besides, in the series with Smn protein, the “maximum fold (Fold) increase of Smn protein” value (shortened to “maximum fold (Fold) increase”) is “** (fold increase between >1.2 and ≤1.35)”.
For `Cc1cn2cc(-c3cc4ccc(CCCNCc5ccccn5)cc4oc3=O)nc2c(C)n1` [Compound 935, 3-(6,8-dimethylimidazo[1,2-a]pyrazin-2-yl)-7-{3-[(pyridin-2-ylmethyl)amino]propyl}-2H-chromen-2-one], the melting point is 177 to 180 °C. Also, the EC (1.5-fold) in series [1] is 0.1 to 0.3 µM. Besides, in the series on Smn protein, the EC1.5x (concentration giving 1.5-fold Smn protein increase) is 300 to 1000 nM; the “maximum fold (Fold) increase” value was “**** (fold increase between >1.5 and ≤1.65)”.
`C[C@@H]1CN(c2ccc3cc(-c4cn5ccc(C(F)(F)F)cc5n4)c(=O)oc3c2)C[C@H](C)N1C` [Compound 168, 3-[7-(trifluoromethyl)imidazo[1,2-a]pyridin-2-yl]-7-[(3R,5S)-3,4,5-trimethylpiperazin-1-yl]-2H-chromen-2-one] displayed a melting point of 267 to 275 °C. For the same compound, in series [1], the EC (1.5-fold) fell in the range of 1 to 3 µM. In addition, the “maximum fold (Fold) increase” value in the series with Smn protein is recorded as “* (maximum fold increase of ≤1.2)”.
On to `CN(CCO)Cc1ccc2cc(-c3nc4ccccc4s3)c(=O)oc2c1` [Compound 79, 3-(1,3-benzothiazol-2-yl)-7-{[(2-hydroxyethyl)(methyl)amino]methyl}-2H-chromen-2-one], for which the melting point lay in the range of 182 to 184 °C. For the same compound, in series [1], the EC (1.5-fold) was in the range of 1 to 3 µM. In the series with Smn protein, the “maximum fold (Fold) increase” value was “*** (fold increase between >1.35 and ≤1.5)”.
For `Cc1cn2cc(-c3cc4ccc(N(C)[C@H]5CCN(C)C5)cc4oc3=O)nc2c(C)n1` [Compound 656, 3-(6,8-dimethylimidazo[1,2-a]pyrazin-2-yl)-7-{methyl[(3S)-1-methylpyrrolidin-3-yl]amino}-2H-chromen-2-one], the melting point lay in the range of 178 to 184 °C. Moreover, the EC (1.5-fold) in series [1] was below 0.1 µM. Besides, in the series on Smn protein, the EC1.5x (concentration giving 1.5-fold Smn protein increase) was below 300 nM and the “maximum fold (Fold) increase” value is on record as “***** (fold increase >1.65)”.
For the compound `O=c1oc2cc(N3CCCNCC3)ccc2cc1-c1cn2ccc(C(F)(F)F)cc2n1` [Compound 275, 7-(1,4-diazepan-1-yl)-3-[7-(trifluoromethyl)imidazo[1,2-a]pyridin-2-yl]-2H-chromen-2-one], the melting point lay in the range of 253 to 262 °C. Besides, the EC (1.5-fold) in series [1] is 0.3 to 1 µM. For the same compound, in the series on Smn protein, the “maximum fold (Fold) increase” value was “* (maximum fold increase of ≤1.2)”.
In the same order, the values of `CN1CCN(c2ccc3cc(-c4cccc(OC5CCC5)n4)c(=O)oc3c2)CC1` [Compound 415, 3-[6-(cyclobutyloxy)pyridin-2-yl]-7-(4-methylpiperazin-1-yl)-2H-chromen-2-one] are 158 to 160 °C, 3 to 30 µM and “* (maximum fold increase of ≤1.2)”.
`Cc1ccc2nc(-c3cc4ccc(N5CCCC(N(C)C)C5)cc4oc3=O)cn2c1` (stereo not drawn) [Compound 200, 7-[3-(dimethylamino)piperidin-1-yl]-3-(6-methylimidazo[1,2-a]pyridin-2-yl)-2H-chromen-2-one] showed a melting point of 167 to 169 °C. Further, the EC (1.5-fold) in series [1] was 3 to 30 µM. Moreover, in the series with Smn protein, the “maximum fold (Fold) increase” value was “* (maximum fold increase of ≤1.2)”.
In the same order, the values of `COc1c(F)cc(F)cc1-c1cc2ccc(N3CCN[C@@H](C)C3)cc2oc1=O` [Compound 539, 3-(3,5-difluoro-2-methoxyphenyl)-7-[(3S)-3-methylpiperazin-1-yl]-2H-chromen-2-one] are 156 to 158 °C, 3 to 30 µM and “* (maximum fold increase of ≤1.2)”.
As for `Cc1ccc2nc(-c3cc4ccc(N(C)Cc5cccnc5)cc4oc3=O)cn2c1` [Compound 221, 3-(6-methylimidazo[1,2-a]pyridin-2-yl)-7-[methyl(pyridin-3-ylmethyl)amino]-2H-chromen-2-one], the melting point was 220 to 223 °C. Further, the EC (1.5-fold) in series [1] lay in the range of 1 to 3 µM. For the same compound, the “maximum fold (Fold) increase” value in the series with Smn protein was “* (maximum fold increase of ≤1.2)”.
As for `Cc1cn2cc(-c3cc4ccc(CCCN5CCOCC5)cc4oc3=O)nc2c(C)n1` [Compound 884, 3-(6,8-dimethylimidazo[1,2-a]pyrazin-2-yl)-7-[3-(morpholin-4-yl)propyl]-2H-chromen-2-one], the melting point is 168 to 172 °C. For the same compound, the EC (1.5-fold) in series [1] was below 0.1 µM. In addition, in the series on Smn protein, the EC1.5x (concentration giving 1.5-fold Smn protein increase) is below 300 nM and the “maximum fold (Fold) increase” value is on record as “***** (fold increase >1.65)”.
On the same counts, the results for `CCN1CCN(c2cc(F)c3cc(-c4cn5cc(C)nc(C)c5n4)c(=O)oc3c2)CC1` [Compound 746, 3-(6,8-dimethylimidazo[1,2-a]pyrazin-2-yl)-7-(4-ethylpiperazin-1-yl)-5-fluoro-2H-chromen-2-one] are 232 to 234 °C, below 0.1 µM, below 300 nM and “***** (fold increase >1.65)”.
Consider `CCCN1CCN(c2ccc3cc(-c4cn5cc(C)ccc5n4)c(=O)oc3c2)CC1` [Compound 207, 3-(6-methylimidazo[1,2-a]pyridin-2-yl)-7-(4-propylpiperazin-1-yl)-2H-chromen-2-one], for which the melting point was in the range of 220 to 222 °C. Also, the EC (1.5-fold) in series [1] lay within 1 to 3 µM. Moreover, in the series on Smn protein, the “maximum fold (Fold) increase” value is “** (fold increase between >1.2 and ≤1.35)”.
In the case of `O=c1oc2cc(OC3CCNCC3)ccc2cc1-c1nc2ccccc2o1` [Cpd 20, 3-(1,3-benzoxazol-2-yl)-7-(piperidin-4-yloxy)-2H-chromen-2-one], the melting point was in the range of 198 to 201 °C. For the same compound, the EC (1.5-fold) in series [1] is 3 to 30 µM. Further, the “maximum fold (Fold) increase” value in the series with Smn protein is recorded as “* (maximum fold increase of ≤1.2)”.
On the same counts, the results for `C[C@H]1CN(c2ccc3cc(-c4cn5cc(F)cc(F)c5n4)c(=O)oc3c2)CCN1` [Compound 524, 3-(6,8-difluoroimidazo[1,2-a]pyridin-2-yl)-7-[(3S)-3-methylpiperazin-1-yl]-2H-chromen-2-one] are 218 to 224 °C, 0.3 to 1 µM and “* (maximum fold increase of ≤1.2)”.
`C[C@@H]1CN(c2cc(F)c3cc(-c4cn5cccnc5n4)c(=O)oc3c2)C[C@H](C)N1` [Compound 352, 7-[(3R,5S)-3,5-dimethylpiperazin-1-yl]-5-fluoro-3-(imidazo[1,2-a]pyrimidin-2-yl)-2H-chromen-2-one]: the melting point was 290 to 292 °C. Further, the EC (1.5-fold) in series [1] fell in the range of 0.1 to 0.3 µM. For the same compound, the “maximum fold (Fold) increase” value in the series on Smn protein was “* (maximum fold increase of ≤1.2)”.
The compound `CCN1CCN(c2ccc3cc(-c4cc5cnc(C)cn5c4)c(=O)oc3c2)CC1` [Compound 640, 7-(4-ethylpiperazin-1-yl)-3-(3-methylpyrrolo[1,2-a]pyrazin-7-yl)-2H-chromen-2-one] came in with a melting point of 208 to 210 °C. For the same compound, the EC (1.5-fold) in series [1] is below 0.1 µM. Further, in the series on Smn protein, the EC1.5x (concentration giving 1.5-fold Smn protein increase) is below 300 nM; the “maximum fold (Fold) increase” value is “**** (fold increase between >1.5 and ≤1.65)”.
With `CSc1nccn2cc(-c3cc4ccc(N5C[C@@H](C)N[C@@H](C)C5)cc4oc3=O)nc12` [Compound 400, 7-[(3R,5S)-3,5-dimethylpiperazin-1-yl]-3-[8-(methylsulfanyl)imidazo[1,2-a]pyrazin-2-yl]-2H-chromen-2-one], the melting point is 283 to 285 °C. Moreover, the EC (1.5-fold) in series [1] lay within 3 to 30 µM. Moreover, the “maximum fold (Fold) increase” value in the series on Smn protein is on record as “* (maximum fold increase of ≤1.2)”.
On the same counts, the results for `Cc1ccn2cc(-c3cc4ccc(NC5CCNCC5)cc4oc3=O)nc2c1` [Compound 495, 3-(7-methylimidazo[1,2-a]pyridin-2-yl)-7-(piperidin-4-ylamino)-2H-chromen-2-one] are 232 to 239 °C, 1 to 3 µM and “* (maximum fold increase of ≤1.2)”.
As for `CN1CCN(c2cc(F)c3cc(-c4cn5ccccc5n4)c(=O)oc3c2)CC1` [Compound 422, 5-fluoro-3-(imidazo[1,2-a]pyridin-2-yl)-7-(4-methylpiperazin-1-yl)-2H-chromen-2-one], the melting point fell in the range of 263 to 269 °C. Moreover, in series [1], the EC (1.5-fold) was in the range of 0.3 to 1 µM. The “maximum fold (Fold) increase” value in the series with Smn protein is “** (fold increase between >1.2 and ≤1.35)”.
As to `Cc1cn2cc(-c3cc4ccc(N5CCN(C)[C@H](C)C5)cc4oc3=O)cnc2n1` [Compound 660, 7-[(3R)-3,4-dimethylpiperazin-1-yl]-3-(2-methylimidazo[1,2-a]pyrimidin-6-yl)-2H-chromen-2-one], the melting point was in the range of 280 to 282 °C. For the same compound, in series [1], the EC (1.5-fold) was below 0.1 µM. Also, in the series on Smn protein, the EC1.5x (concentration giving 1.5-fold Smn protein increase) lay within 300 to 1000 nM and the “maximum fold (Fold) increase” value is “***** (fold increase >1.65)”.
Compound `CN1CCN(c2ccc3cc(-c4cn5cc(Cl)sc5n4)c(=O)oc3c2)CC1` [Compound 478, 3-(2-chloroimidazo[2,1-b][1,3]thiazol-6-yl)-7-(4-methylpiperazin-1-yl)-2H-chromen-2-one] returned a melting point of 268 to 270 °C. Also, the EC (1.5-fold) in series [1] lay within 0.3 to 1 µM. Moreover, the “maximum fold (Fold) increase” value in the series on Smn protein was “* (maximum fold increase of ≤1.2)”.
